We go through four molecules from ChEMBL document CHEMBL1806498, “Novel imidazo[1,2-a]pyridine based inhibitors of the IGF-1 receptor tyrosine kinase: optimization of the aniline” (Bioorg Med Chem Lett, 2011).

The nature of data set [1]: Dissociation constant, pKa of the compound at pH 7.4 by UV spectrophotometric titration. The format is physicochemical.
Data set [2] can be described thus: physchem. The note with it: octanol/water.
Data set [3] can be described thus: physchem. The note with it: buffer, pH 7.4.
The nature of data set [4]: Aqueous solubility of the compound in phosphate buffer at pH 7.4. It counts as physicochemical.

Broadly, the pKa is the negative logarithm of the acid dissociation constant. Low values mean a stronger acid or weaker base, high ones a weaker acid or stronger base. The term logP denotes the decadic logarithm of the partition coefficient of the neutral form, usually between octanol and water. A lower logP goes with a more hydrophilic compound. Usually logD stands for lipophilicity at a set pH, counting ionised and neutral species. A high value points to a more lipophilic compound. In data set [1], `COc1cc(N2CC3CNCC(C2)O3)ccc1Nc1ncc(Cl)c(-c2cnc3ccccn23)n1` had a pKa of 8.7. Moreover, in data set [2], the logP was 3.6. The logD in data set [3] turned out to be 2.3.
`COc1cc(N2CC3CN(CCO)CC(C2)O3)ccc1Nc1ncc(Cl)c(-c2cnc3ccccn23)n1` gave a pKa in data set [1] of 8.4.
The molecule `COc1cc(N2CC3COCC(C2)N3)ccc1Nc1ncc(Cl)c(-c2cnc3ccccn23)n1` came in with a pKa in data set [1] of 6.7. The logP in data set [2] is 3.1. The molecule further yielded a logD in data set [3] of 3.
As a reminder, the solubility is the dissolved amount per volume that the medium holds. The molecule `COc1cc(N2CCN(S(C)(=O)=O)CC2)ccc1Nc1ncc(Cl)c(-c2cnc3ccccn23)n1` gave a solubility in data set [4] of under 0.6 µM.
